Test results taken from patent publication US11542240B2, “STK19 inhibitors for treatment of cancer” (TRUSTEES OF BOSTON UNIVERSITY, priority 2018, dated 2023).
Like-named read-outs stand apart in the source and are kept apart here.

How the values were obtained:
Experiment in all cases: biochemical
Assay type in all cases: binding
[1] = target: panel of 468 diverse kinases (Homo sapiens, UniProt P15056, V600E); conditions: BRAF(V600E); 1000 nM; read-out: Percent Control
[2] = target: panel of 468 diverse kinases (Homo sapiens, UniProt O00750); conditions: PIK3C2B; 1000 nM; read-out: Percent Control
[3] = target: panel of 468 diverse kinases (Homo sapiens, UniProt Q13873); conditions: BMPR2; 1000 nM; read-out: Percent Control
[4] = target: panel of 468 diverse kinases (Homo sapiens, UniProt Q8TD19); conditions: NEK9; 1000 nM; read-out: Percent Control
[5] = target: panel of 468 diverse kinases (Homo sapiens, UniProt P23458); conditions: 1000 nM, read-out: Percent Control
[6] = target: panel of 468 diverse kinases (Homo sapiens, UniProt Q8NG66); conditions: NEK11; 1000 nM; read-out: Percent Control
[7] = target: panel of 468 diverse kinases (Homo sapiens, UniProt Q9NYY3); conditions: PLK2; 1000 nM; read-out: Percent Control
[8] = target: panel of 468 diverse kinases (Homo sapiens, UniProt P07949, V804M); conditions: RET(V804M); 1000 nM; read-out: Percent Control
[9] = target: panel of 468 diverse kinases (Homo sapiens, UniProt Q9H2G2); conditions: SLK; 1000 nM; read-out: Percent Control
[10] = target: panel of 468 diverse kinases (Homo sapiens, UniProt Q9BRS2); conditions: RIOK1; 1000 nM; read-out: Percent Control
[11] = target: panel of 468 diverse kinases (Homo sapiens, UniProt P49674); conditions: CSNK1E; 1000 nM; read-out: Percent Control
[12] = target: panel of 468 diverse kinases (Homo sapiens, UniProt Q9C098); conditions: DCAMKL3; 1000 nM; read-out: Percent Control
[13] = target: panel of 468 diverse kinases (Homo sapiens, UniProt Q15569); conditions: TESK1; 1000 nM; read-out: Percent Control
[14] = target: panel of 468 diverse kinases (Homo sapiens, UniProt P07333); conditions: 1000 nM, read-out: Percent Control
[15] = target: panel of 468 diverse kinases (Homo sapiens, UniProt P27448); conditions: MARK3; 1000 nM; read-out: Percent Control
[16] = target: panel of 468 diverse kinases (Homo sapiens, UniProt P08631); conditions: HCK; 1000 nM; read-out: Percent Control
[17] = target: panel of 468 diverse kinases (Homo sapiens, UniProt P08581, M1250T); conditions: MET(M1250T); 1000 nM; read-out: Percent Control
[18] = target: panel of 468 diverse kinases (Homo sapiens, UniProt Q14164); conditions: IKK-epsilon; 1000 nM; read-out: Percent Control
[19] = target: panel of 468 diverse kinases (Homo sapiens, UniProt Q8IYT8); conditions: ULK2; 1000 nM; read-out: Percent Control
[20] = target: panel of 468 diverse kinases (Homo sapiens, UniProt P53779); conditions: JNK3; 1000 nM; read-out: Percent Control
[21] = target: panel of 468 diverse kinases (Homo sapiens, UniProt P36888, D835Y); conditions: FLT3(D835Y); 1000 nM; read-out: Percent Control
[22] = target: panel of 468 diverse kinases (Homo sapiens, UniProt P49137); conditions: MAPKAPK2; 1000 nM; read-out: Percent Control
[23] = target: panel of 468 diverse kinases (Homo sapiens, UniProt Q9UIK4); conditions: DAPK2; 1000 nM; read-out: Percent Control
[24] = target: panel of 468 diverse kinases (Homo sapiens, UniProt Q9UKI8); conditions: TLK1; 1000 nM; read-out: Percent Control
[25] = target: panel of 468 diverse kinases (Homo sapiens, UniProt P21802); conditions: FGFR2; 1000 nM; read-out: Percent Control
[26] = target: panel of 468 diverse kinases (Homo sapiens, UniProt P00533, T790M); conditions: EGFR(T790M); 1000 nM; read-out: Percent Control
[27] = target: panel of 468 diverse kinases (Homo sapiens, UniProt Q02750); conditions: MEK1; 1000 nM; read-out: Percent Control
[28] = target: panel of 468 diverse kinases (Homo sapiens, UniProt Q6ZN16); conditions: MAP3K15; 1000 nM; read-out: Percent Control
[29] = target: panel of 468 diverse kinases (Homo sapiens, UniProt P08922); conditions: ROS1; 1000 nM; read-out: Percent Control
[30] = target: panel of 468 diverse kinases (Homo sapiens, UniProt P36507); conditions: MEK2; 1000 nM; read-out: Percent Control

Sequence of panel of 468 diverse kinases (Homo sapiens, UniProt P07333) (P07333 20-972 limits assumed): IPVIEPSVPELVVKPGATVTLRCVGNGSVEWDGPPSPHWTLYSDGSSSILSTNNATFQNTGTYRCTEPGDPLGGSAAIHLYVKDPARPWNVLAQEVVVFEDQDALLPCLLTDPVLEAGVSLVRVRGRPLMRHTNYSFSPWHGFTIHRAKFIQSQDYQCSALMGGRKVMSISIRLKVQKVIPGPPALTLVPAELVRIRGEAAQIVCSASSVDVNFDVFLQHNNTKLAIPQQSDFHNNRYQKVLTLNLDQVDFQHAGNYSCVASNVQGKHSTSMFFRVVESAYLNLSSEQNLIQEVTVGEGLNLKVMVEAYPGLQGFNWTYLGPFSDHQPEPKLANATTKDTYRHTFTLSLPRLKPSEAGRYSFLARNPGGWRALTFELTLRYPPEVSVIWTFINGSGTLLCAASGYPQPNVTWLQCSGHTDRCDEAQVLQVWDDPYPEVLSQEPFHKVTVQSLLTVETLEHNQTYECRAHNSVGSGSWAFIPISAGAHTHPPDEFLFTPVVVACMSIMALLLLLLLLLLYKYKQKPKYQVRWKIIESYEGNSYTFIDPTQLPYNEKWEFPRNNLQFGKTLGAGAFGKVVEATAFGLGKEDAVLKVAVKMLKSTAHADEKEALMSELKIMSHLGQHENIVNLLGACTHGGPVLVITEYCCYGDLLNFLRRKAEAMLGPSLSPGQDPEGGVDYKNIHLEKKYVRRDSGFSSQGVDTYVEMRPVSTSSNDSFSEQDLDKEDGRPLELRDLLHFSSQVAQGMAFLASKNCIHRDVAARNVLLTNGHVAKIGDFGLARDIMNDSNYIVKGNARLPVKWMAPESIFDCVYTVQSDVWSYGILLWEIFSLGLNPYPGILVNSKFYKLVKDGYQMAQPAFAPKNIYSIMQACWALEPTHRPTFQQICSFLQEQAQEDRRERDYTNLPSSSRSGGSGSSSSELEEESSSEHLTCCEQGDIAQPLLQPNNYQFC
Sequence of panel of 468 diverse kinases (Homo sapiens, UniProt P07949, V804M) (P07949 29-1114 V804M limits assumed): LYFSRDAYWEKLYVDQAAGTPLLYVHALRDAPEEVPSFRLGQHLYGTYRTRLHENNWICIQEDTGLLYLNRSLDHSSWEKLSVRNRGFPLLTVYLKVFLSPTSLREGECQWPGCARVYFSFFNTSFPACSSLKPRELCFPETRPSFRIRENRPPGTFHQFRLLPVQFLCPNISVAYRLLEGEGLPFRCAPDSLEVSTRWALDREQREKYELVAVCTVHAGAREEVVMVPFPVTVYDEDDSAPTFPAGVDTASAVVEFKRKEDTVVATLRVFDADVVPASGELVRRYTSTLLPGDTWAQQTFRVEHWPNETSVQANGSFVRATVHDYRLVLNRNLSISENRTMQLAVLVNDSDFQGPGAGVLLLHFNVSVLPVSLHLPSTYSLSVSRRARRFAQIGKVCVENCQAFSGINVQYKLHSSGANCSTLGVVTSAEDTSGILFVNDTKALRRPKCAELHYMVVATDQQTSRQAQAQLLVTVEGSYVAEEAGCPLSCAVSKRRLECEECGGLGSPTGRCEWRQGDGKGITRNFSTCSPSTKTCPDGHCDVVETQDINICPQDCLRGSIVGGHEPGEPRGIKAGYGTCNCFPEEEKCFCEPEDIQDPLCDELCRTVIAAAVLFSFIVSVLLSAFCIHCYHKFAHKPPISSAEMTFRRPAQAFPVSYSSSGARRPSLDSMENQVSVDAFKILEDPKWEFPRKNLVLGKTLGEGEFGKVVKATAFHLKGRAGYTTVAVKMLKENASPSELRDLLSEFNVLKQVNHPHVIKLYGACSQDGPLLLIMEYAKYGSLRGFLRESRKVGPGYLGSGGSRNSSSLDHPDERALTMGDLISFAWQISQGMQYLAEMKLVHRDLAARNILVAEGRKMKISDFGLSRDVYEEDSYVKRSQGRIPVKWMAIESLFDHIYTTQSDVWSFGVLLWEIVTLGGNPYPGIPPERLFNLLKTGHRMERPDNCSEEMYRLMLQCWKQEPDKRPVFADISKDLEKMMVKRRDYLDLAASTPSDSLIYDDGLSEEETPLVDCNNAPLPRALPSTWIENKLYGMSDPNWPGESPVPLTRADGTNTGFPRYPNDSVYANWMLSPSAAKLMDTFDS
Sequence of panel of 468 diverse kinases (Homo sapiens, UniProt P15056, V600E) (P15056 2-766 V600E limits assumed): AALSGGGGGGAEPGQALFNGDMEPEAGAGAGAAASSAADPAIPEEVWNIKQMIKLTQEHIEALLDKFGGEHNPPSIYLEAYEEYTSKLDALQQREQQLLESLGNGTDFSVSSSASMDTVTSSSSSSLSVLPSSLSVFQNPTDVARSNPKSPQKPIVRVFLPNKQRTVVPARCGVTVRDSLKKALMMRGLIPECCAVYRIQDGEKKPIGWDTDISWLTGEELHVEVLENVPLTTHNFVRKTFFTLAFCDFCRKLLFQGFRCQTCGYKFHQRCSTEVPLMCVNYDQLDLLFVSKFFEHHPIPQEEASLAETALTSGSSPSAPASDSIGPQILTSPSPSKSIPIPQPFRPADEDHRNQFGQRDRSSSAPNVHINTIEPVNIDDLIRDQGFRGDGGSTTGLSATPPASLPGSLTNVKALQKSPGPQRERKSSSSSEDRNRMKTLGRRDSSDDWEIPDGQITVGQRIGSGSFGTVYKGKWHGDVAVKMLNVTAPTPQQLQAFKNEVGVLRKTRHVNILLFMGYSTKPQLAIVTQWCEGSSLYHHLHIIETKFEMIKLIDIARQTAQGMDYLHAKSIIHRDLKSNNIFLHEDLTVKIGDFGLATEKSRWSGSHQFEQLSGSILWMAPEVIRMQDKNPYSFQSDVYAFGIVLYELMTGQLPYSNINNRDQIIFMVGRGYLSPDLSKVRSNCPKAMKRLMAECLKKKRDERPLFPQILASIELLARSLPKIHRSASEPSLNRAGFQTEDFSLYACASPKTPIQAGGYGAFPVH
Sequence of panel of 468 diverse kinases (Homo sapiens, UniProt Q8TD19) (Q8TD19 2-979 limits assumed): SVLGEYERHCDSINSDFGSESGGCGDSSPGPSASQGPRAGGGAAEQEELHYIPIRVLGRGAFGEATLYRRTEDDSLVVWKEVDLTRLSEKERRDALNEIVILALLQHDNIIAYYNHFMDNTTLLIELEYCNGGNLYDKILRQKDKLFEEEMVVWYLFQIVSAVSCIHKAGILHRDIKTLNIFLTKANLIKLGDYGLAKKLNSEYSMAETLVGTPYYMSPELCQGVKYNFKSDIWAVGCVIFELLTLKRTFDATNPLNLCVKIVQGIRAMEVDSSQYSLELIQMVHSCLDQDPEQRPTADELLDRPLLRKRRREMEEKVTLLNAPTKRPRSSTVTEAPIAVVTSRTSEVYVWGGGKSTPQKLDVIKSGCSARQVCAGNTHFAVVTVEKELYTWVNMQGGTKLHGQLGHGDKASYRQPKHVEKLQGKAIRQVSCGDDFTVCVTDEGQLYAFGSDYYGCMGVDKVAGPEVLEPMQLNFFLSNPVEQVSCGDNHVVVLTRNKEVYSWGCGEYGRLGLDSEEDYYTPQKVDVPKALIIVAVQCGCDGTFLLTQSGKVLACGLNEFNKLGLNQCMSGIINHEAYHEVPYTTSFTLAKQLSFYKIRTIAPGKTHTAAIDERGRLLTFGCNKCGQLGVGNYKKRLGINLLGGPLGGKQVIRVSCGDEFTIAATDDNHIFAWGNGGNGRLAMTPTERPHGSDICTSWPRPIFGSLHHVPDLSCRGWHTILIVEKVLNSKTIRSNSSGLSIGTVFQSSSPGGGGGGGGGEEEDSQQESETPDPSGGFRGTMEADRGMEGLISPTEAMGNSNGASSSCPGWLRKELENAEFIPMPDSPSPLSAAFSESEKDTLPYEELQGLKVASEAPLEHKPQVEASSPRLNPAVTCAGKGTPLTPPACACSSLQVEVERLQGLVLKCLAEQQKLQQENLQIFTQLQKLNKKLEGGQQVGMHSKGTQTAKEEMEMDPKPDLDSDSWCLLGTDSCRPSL
Sequence of panel of 468 diverse kinases (Homo sapiens, UniProt Q13873) (Q13873 27-1038 limits assumed): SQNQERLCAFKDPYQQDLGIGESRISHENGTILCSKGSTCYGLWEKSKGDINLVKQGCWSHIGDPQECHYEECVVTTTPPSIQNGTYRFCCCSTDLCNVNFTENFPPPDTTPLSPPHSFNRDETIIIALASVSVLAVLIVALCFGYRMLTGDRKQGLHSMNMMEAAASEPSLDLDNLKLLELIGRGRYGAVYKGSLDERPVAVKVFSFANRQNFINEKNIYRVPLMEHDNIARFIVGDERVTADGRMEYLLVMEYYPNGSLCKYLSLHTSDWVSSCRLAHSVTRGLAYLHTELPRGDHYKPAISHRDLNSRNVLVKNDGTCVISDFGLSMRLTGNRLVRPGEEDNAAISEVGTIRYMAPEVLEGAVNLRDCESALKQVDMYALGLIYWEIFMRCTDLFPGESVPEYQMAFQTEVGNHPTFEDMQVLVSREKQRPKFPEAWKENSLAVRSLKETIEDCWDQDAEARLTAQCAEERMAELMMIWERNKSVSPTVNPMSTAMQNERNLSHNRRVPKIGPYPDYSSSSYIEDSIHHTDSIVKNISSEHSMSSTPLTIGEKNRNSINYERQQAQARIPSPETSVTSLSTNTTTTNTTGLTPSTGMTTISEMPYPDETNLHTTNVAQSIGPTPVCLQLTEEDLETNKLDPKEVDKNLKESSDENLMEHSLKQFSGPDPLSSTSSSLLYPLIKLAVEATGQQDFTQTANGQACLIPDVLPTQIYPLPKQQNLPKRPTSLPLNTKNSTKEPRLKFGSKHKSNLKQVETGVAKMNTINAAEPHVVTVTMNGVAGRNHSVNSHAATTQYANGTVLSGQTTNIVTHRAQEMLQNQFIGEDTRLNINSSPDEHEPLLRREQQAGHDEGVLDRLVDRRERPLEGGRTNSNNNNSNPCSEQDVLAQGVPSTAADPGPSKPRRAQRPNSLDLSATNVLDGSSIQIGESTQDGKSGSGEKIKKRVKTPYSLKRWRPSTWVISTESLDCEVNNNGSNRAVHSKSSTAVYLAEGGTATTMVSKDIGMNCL

COc1cc2nc(NC3CC3)nc(NC3CCN(C(C)C)CC3)c2cc1OC [Formula IV] showed a remaining activity at 1 µM [1] of 89%, a remaining activity at 1 µM [2] of 87% and a remaining activity at 1 µM [3] of 40%. For the same compound, the remaining activity at 1 µM [4] was 83%, the remaining activity at 1 µM ([5]; JAK1(JH1domain-catalytic)) was 96% and the remaining activity at 1 µM ([5]; JAK1(JH2domain-pseudokinase)) was 51%. The remaining activity at 1 µM [6] was 42%, the remaining activity at 1 µM [7] was 55% and the remaining activity at 1 µM [8] was 100%. It also gave a remaining activity at 1 µM [9] of 100%, a remaining activity at 1 µM [10] of 100% and a remaining activity at 1 µM [11] of 100%. The remaining activity at 1 µM [12] was 92%, the remaining activity at 1 µM [13] was 100% and the remaining activity at 1 µM ([14]; CSF1R-autoinhibited) was 54%. For the same compound, the remaining activity at 1 µM ([14]; CSF1R) was 91%, the remaining activity at 1 µM [15] was 100% and the remaining activity at 1 µM [16] was 95%. For the same compound, the remaining activity at 1 µM [17] was 88%, the remaining activity at 1 µM [18] was 84% and the remaining activity at 1 µM [19] was 59%. It also gave a remaining activity at 1 µM [20] of 100%, a remaining activity at 1 µM [21] of 88% and a remaining activity at 1 µM [22] of 100%. For the same compound, the remaining activity at 1 µM [23] was 93%, the remaining activity at 1 µM [24] was 90% and the remaining activity at 1 µM [25] was 100%. For the same compound, the remaining activity at 1 µM [26] was 44%, the remaining activity at 1 µM [27] was 63% and the remaining activity at 1 µM [28] was 52%. For the same compound, the remaining activity at 1 µM [29] was 90% and the remaining activity at 1 µM [30] was 58%.
